Patent US6403606B1, “Thienopyridine derivatives and their use” (Takeda Chemical Industries Ltd., priority 1996, dated 2002)

Compound | melting point
COc1ccc(-c2c(Cl)c(CNC(C)(C)C)nc3sc4c(c23)CCN(Cc2ccccc2)C4)cc1OC [Example 3B, 7-benzyl-2-(tert-butylaminomethyl)-3-chloro-4-(3,4-dimethoxyphenyl)-5,6,7,8-tetrahydrothieno[2,3-b:5,4-c′]dipyridine] | 134 to 135 °C
CCOC(=O)c1c(CN(CC)CC)nc2sc3c(c2c1-c1ccc(Cl)cc1)CCNC3 [Example 6A, ethyl 4-(4-chlorophenyl)-2-(N,N-diethylaminomethyl)-5,6,7,8-tetrahydrothieno[2,3-b:5,4-c′]dipyridine-3-carboxylate] | 104 to 106 °C
COc1ccc(-c2c(Cl)c(COc3ccccn3)nc3sc4c(c23)CCN(Cc2ccccc2)C4)cc1OC [Example 6B, 7-benzyl-3-chloro-4-(3,4-dimethoxyphenyl)-2-(2-pyridyloxymethyl)-5,6,7,8-tetrahydrothieno[2,3-b:5,4-c′]dipyridine] | 165 to 167 °C
COc1ccc(-c2c(Cl)c(CNC(C)(C)C)nc3sc4c(c23)CCN(C(=O)c2ccccc2)C4)cc1OC [Example 8B, 7-benzoyl-2-(tert-butylaminomethyl)-3-chloro-4-(3,4-dimethoxyphenyl)-5,6,7,8-tetrahydrothieno[2,3-b:5,4-c′]dipyridine] | 204 to 205 °C
COc1cc(-c2c(Cl)c(CNC(C)(C)C)nc3sc4c(c23)CCN(C(=O)c2ccccc2)C4)ccc1OC(C)C [Example 9B, 7-benzoyl-2-(tert-butylaminomethyl)-3-chloro-4-(4-isopropoxy-3-methoxyphenyl)-5,6,7,8-tetrahydrothieno[2,3-b:5,4-c′]dipyridine] | 165 to 166 °C
COc1ccc(C2(Cl)CC(CNC(C)(C)C)=Nc3sc4c(c32)CCNC4)cc1OC (centres unmarked) [Example 10B, 2-(tert-butylaminomethyl)-4-chloro-4-(3,4-dimethoxyphenyl)-5,6,7,8-tetrahydrothieno(2,3-b:5,4-c′]dipyridine] | 162 to 163 °C
COc1cc(-c2c(Cl)c(CNC(C)(C)C)nc3sc4c(c23)CCNC4)ccc1OC(C)C [Example 11B, 2-(tert-butylaminomethyl)-3-chloro-4-(4-isopropoxy-3-methoxyphenyl)-5,6,7,8-tetrahydrothieno[2,3-b:5,4-c′]dipyridine] | 157 to 158 °C
COc1ccc(-c2c(Cl)c(CN3CCN(C(C)=O)CC3)nc3sc4c(c23)CCN(Cc2ccccc2)C4)cc1OC [Example 14B, 2-(4-acetylpiperazin-1-ylmethyl)-7-benzyl-3-chloro-4-(3,4-dimethoxyphenyl)-5,6,7,8-tetrahydrothieno[2,3-b:5,4-c′]dipyridine] | 183 to 184 °C
COc1ccc(-c2c(Cl)c(CNS(=O)(=O)c3ccccc3)nc3sc4c(c23)CCN(Cc2ccccc2)C4)cc1OC [Example 19B, 7-benzyl-3-chloro-4-(3,4-dimethoxyphenyl)-2-phenylsulfonylaminomethyl-5,6,7,8-tetrahydrothieno[2,3-b:5,4-c′]dipyridine] | 153 to 154 °C
COc1ccc(-c2c(Cl)c(CNC(=O)Cn3cncn3)nc3sc4c(c23)CCN(Cc2ccccc2)C4)cc1OC [Example 20B, 7-benzyl-3-chloro-4-(3,4-dimethoxyphenyl)-5,6,7,8-tetrahydro-2-(1,2,4-triazol-1-ylacetylaminomethyl)thieno[2,3-b:5,4-c′]dipyridine] | 101 to 102 °C
CCOC(=O)c1c(Cn2cncn2)nc2sc3c(c2c1-c1ccc(OC)c(OC)c1)CCNC3 [Example 21A, ethyl 4-(3,4-dimethoxyphenyl)-5,6,7,8-tetrahydro-2-(1,2,4-triazol-1-ylmethyl)thieno[2,3-b:5,4-c′]dipyridine-3-carboxylate] | 164 to 165 °C
CCOC(=O)c1c(Cc2nc[nH]n2)nc2sc3cnccc3c2c1-c1ccc(OC)c(OC)c1 [Example 22A, ethyl 4-(3,4-dimethoxyphenyl)-2-(1,2,4-triazol-ylmethyl)thieno[2,3-b:5,4-c′]dipyridine-3-carboxylate] | 172 to 174 °C
COc1ccc(-c2c(Cl)c(CNC(=O)c3cccnc3)nc3sc4c(c23)CCN(Cc2ccccc2)C4)cc1OC [Example 22B, 7-benzyl-3-chloro-4-(3,4-dimethoxyphenyl)-2-(nicotinoylaminomethyl)-5,6,7,8-tetrahydrothieno[2,3-b:5,4-c′]dipyridine] | 124 to 125 °C
COc1ccc(-c2c(Cl)c(Cn3cncn3)nc3sc4c(c23)CCN(Cc2ccccc2)C4)cc1OC [Example 26B, 7-benzyl-3-chloro-4-(3,4-dimethoxyphenyl)-5,6,7,8-tetrahydro-2-(1,2,4-triazol-1-ylmethyl)thieno[2,3-b:5,4-c′]dipyridine] | 165 to 166 °C
CCOC(=O)c1c(CCCn2cncn2)nc2sc3cnccc3c2c1-c1ccc(OC)c(OC)c1 [Example 29A, ethyl 4-(3,4-dimethoxyphenyl)-2-[3-(1,2,4-triazol-1-yl)propyl]thieno[2,3-b:5,4-c′]dipyridine-3-carboxylate] | 127 to 129 °C

Next, values leading:

melting point | Compound
135 to 136 °C | CCNCc1nc2sc3c(c2c(-c2ccc(OC)c(OC)c2)c1Cl)CCN(Cc1ccccc1)C3 [Example 1B, 7-benzyl-3-chloro-4-(3,4,-dimethoxyphenyl)-2-ethylaminomethyl-5,6,7,8-tetrahydrothieno[2,3-b:5,4-c′]dipyridine]
150 to 151 °C | CCN(CC)Cc1nc2sc3c(c2c(-c2ccc(OC)c(OC)c2)c1Cl)CCN(Cc1ccccc1)C3 [Example 2B, 7-benzyl-3-chloro-2-(N,N-diethylaminomethyl)-4-(3,4-dimethoxyphenyl)-5,6,7,8-tetrahydrothieno[2,3-b:5,4-c′]dipyridine]
99 to 101 °C | CCOC(=O)c1c(CN2CCC(C(=O)OCC)CC2)nc2sc3c(c2c1-c1ccc(OC)c(OC)c1)CCN(C(=O)c1ccc(Cl)cc1)C3 [Example 3A, ethyl 7-(4-chlorobenzoyl)-4-(3,4-dimethoxyphenyl)-2-(4-ethoxycarbonylpiperidinomethyl)-5,6,7,8-tetrahydrothieno-[2,3-b:5,4-c′]dipyridine-3-carboxylate]
177 to 178 °C | CCOC(=O)c1c(CN(CC)CC)nc2sc3c(c2c1-c1ccc(Cl)cc1)CCN(C(=O)c1ccccc1)C3 [Example 4A, ethyl 7-benzoyl-4-(4-chlorophenyl)-2-(N,N-diethylaminomethyl)-5,6,7,8-tetrahydrothieno[2,3-b:5,4-c′]dipyridine-3-carboxylate]
128 to 129 °C | CCC(C)(C)NCc1nc2sc3c(c2c(-c2ccc(OC)c(OC)c2)c1Cl)CCN(Cc1ccccc1)C3 [Example 4B, 2-(tert-amylaminomethyl)-7-benzyl-3-chloro-4-(3,4-dimethoxyphenyl)-5,6,7,8-tetrahydrothieno[2,3-b:5,4-c′]dipyridine]
131 to 132 °C | COc1ccc(-c2c(Cl)c(CNC3CC3)nc3sc4c(c23)CCN(Cc2ccccc2)C4)cc1OC [Example 5B, 7-benzyl-3-chloro-2-(cyclopropylaminomethyl)-4-(3,4-dimethoxyphenyl)-5,6,7,8-tetrahydrothieno[2,3-b:5,4-c′]dipyridine]
161 to 162 °C | CCOC(=O)c1c(CN(CC)CC)nc2sc3c(c2c1-c1ccc(OC)c(OC)c1)CCN(S(=O)(=O)c1ccccc1)C3 [Example 9A, ethyl 7-benzenesulfonyl-2-(N,N-diethylaminomethyl)-4-(3,4-dimethoxyphenyl)-5,6,7,8-tetrahydrothieno[2,3-b:5,4-c′]dipyridine-3-carboxylate]
142 to 143 °C | CCOC(=O)c1c2c(cn1CN(CC)CC)C1=C(NC(C(=O)OCc3ccccc3)CC1)[SH]2c1ccc(OC)c(OC)c1 (centres unmarked) [Example 16A, ethyl 2-benzyloxycarbonyl-8-(3,4-dimethoxyphenyl)-6-diethylaminomethyl-2,3-dihydro-1H-pyrrolo[3′,4′:4,5]-thieno[2,3-b]pyridine-7-carboxylate]
166 to 167 °C | CCOC(=O)c1c2c(cn1Cn1cncn1)C1=C(NC(C(=O)OCc3ccccc3)CC1)[SH]2c1ccc(OC)c(OC)c1 (centres unmarked) [Example 17A, ethyl 2-benzyloxycarbonyl-8-(3,4-dimethoxyphenyl)-2,3-dihydro-6-(1,2,4-triazol-1-ylmethyl)-1H-pyrrolo[3′,4′:4,5]thieno[2,3-b]pyridine-7-carboxylate]
193 to 194 °C | CCOC(=O)c1c(Cn2cncn2)nc2sc3c(c2c1-c1ccc(OC)c(OC)c1)CCN(C(=O)c1ccccc1)C3 [Example 20A, ethyl 7-benzoyl-4-(3,4-dimethoxyphenyl)-5,6,7,8-tetrahydro-2-(1,2,4-triazol-1-ylmethyl)thieno[2,3-b:5,4-c′]dipyridine-3-carboxylate]
170 to 217 °C | CCOC(=O)c1c(CCc2nccn2C)nc2sc3c(c2c1-c1ccc(OC)c(OC)c1)CCN(C(=O)c1ccccc1)C3 [Example 23A, ethyl 7-benzoyl-4-(3,4-dimethoxyphenyl)-5,6,7,8-tetrahydro-2-[2-(1-methylimidazol-2-yl)ethyl]thieno[2,3-b:5,4-c′]dipyridine-3-carboxylate]
184 to 185 °C | CCOC(=O)c1c(CCc2c[nH]nn2)nc2sc3c(c2c1-c1ccc(OC)c(OC)c1)CCN(C(=O)c1ccccc1)C3 [Example 24A, ethyl 7-benzoyl-4-(3,4-dimethoxyphenyl)-5,6,7,8-tetrahydro-2-[2-(1,2,3-triazol-4-yl)ethyl]thieno[2,3-b:5,4-c′]dipyridine-3-carboxylate]
129 to 130 °C | CCOC(=O)c1c(CN(C)O)nc2sc3c(c2c1-c1ccc(OC)c(OC)c1)CCN(C(=O)c1ccccc1)C3 [Example 25A, ethyl 7-benzoyl-4-(3,4-dimethoxyphenyl)-2-(N-hydroxy-N-methylaminomethyl)-5,6,7,8-tetrahydrothieno[2,3-b:5,4-c′]dipyridine-3-carboxylate]
195 to 197 °C | CCOC(=O)c1c(CCn2cncn2)nc2sc3c(c2c1-c1ccc(OC)c(OC)c1)CCN(C(=O)c1ccc(Cl)cc1)C3 [Example 26A, ethyl 7-(4-chlorobenzoyl)-4-(3,4-dimethoxyphenyl)-5,6,7,8-tetrahydro-2-[2-(1,2,4-triazol-1-yl)ethyl]thieno[2,3-b:5,4-c′]dipyridine-3-carboxylate]
